{"source": "patent US6613883B1", "about": "“Screening assays for compounds that cause apoptosis and related compounds” (The United States of America as represented by the …, priority 1994, dated 2003)", "molecules": {"B1": {"name": "ΔC354: XPB deletion mutant terminating at residue 354 (helicase motifs Ia to VI deleted) (protein)", "chain": "MGKRDRADRDKKKSRKRHYEDEEDDEEDAPGNDPQEAVPSAAGKQVDESGTKVDEYGAKDYRLQMPLKDDHTSRPLWVAPDGHIFLEAFSPVYKYAQDFLVAIAEPVCRPTHVHEYKLTAYSLYAAVSVGLQTSDITEYLRKLSKTGVPDGIMQFIKLCTVSYGKVKLVLKHNRYFVESCHPDVIQHLLQDPVIRECRLRNSEGEATELITETFTSKSAISKTAESSGGPSTSRVTDPQGKSDIPMDLFDFYEQMDKDEEEEEETQTVSFEVKQEMIEELQKRCIHLEYPLLAEYDFRNDSVNPDINIDLKPTAVLRPYQEKSLRKMFGNGRARSGVIVLPCGAGKSLVGVTAA"}, "B2": {"name": "GST-XPB-80/480: GST fused to amino acids 80 to 480 of XPB (protein, UniProt P19447 80-480, looked up, fragment)", "chain": "PDGHIFLEAFSPVYKYAQDFLVAIAEPVCRPTHVHEYKLTAYSLYAAVSVGLQTSDITEYLRKLSKTGVPDGIMQFIKLCTVSYGKVKLVLKHNRYFVESCHPDVIQHLLQDPVIRECRLRNSEGEATELITETFTSKSAISKTAESSGGPSTSRVTDPQGKSDIPMDLFDFYEQMDKDEEEEEETQTVSFEVKQEMIEELQKRCIHLEYPLLAEYDFRNDSVNPDINIDLKPTAVLRPYQEKSLRKMFGNGRARSGVIVLPCGAGKSLVGVTAACTVRKRCLVLGNSAVSVEQWKAQFKMWSTIDDSQICRFTSDAKDKPIGCSVAISTYSMLGHTTKRSWEAERVMEWLKTQEWGLMILDEVHTIPAKMFRRVLTIVQAHCKLGLTATLVREDDKIVDL", "modifications": "GST fusion", "notes": "GST fused to amino acids 80 to 480 of XPB"}, "B3": {"name": "ΔC496: XPB deletion mutant terminating at residue 496 (helicase motifs IV, V and VI deleted) (protein)", "chain": "MGKRDRADRDKKKSRKRHYEDEEDDEEDAPGNDPQEAVPSAAGKQVDESGTKVDEYGAKDYRLQMPLKDDHTSRPLWVAPDGHIFLEAFSPVYKYAQDFLVAIAEPVCRPTHVHEYKLTAYSLYAAVSVGLQTSDITEYLRKLSKTGVPDGIMQFIKLCTVSYGKVKLVLKHNRYFVESCHPDVIQHLLQDPVIRECRLRNSEGEATELITETFTSKSAISKTAESSGGPSTSRVTDPQGKSDIPMDLFDFYEQMDKDEEEEEETQTVSFEVKQEMIEELQKRCIHLEYPLLAEYDFRNDSVNPDINIDLKPTAVLRPYQEKSLRKMFGNGRARSGVIVLPCGAGKSLVGVTAACTVRKRCLVLGNSAVSVEQWKAQFKMWSTIDDSQICRFTSDAKDKPIGCSVAISTYSMLGHTTKRSWEAERVMEWLKTQEWGLMILDEVHTIPAKMFRRVLTIVQAHCKLGLTATLVREDDKIVDLNFLIGPKLYEANWMEL"}}, "key": {"[1]": {"test_system": "normal primary human fibroblasts (C5RO)", "assay": "Apoptosis after microinjection of p53 expression vectors", "type": "cell-based", "conditions": "for effect of coinjected mutant p53 on induction of apoptosis by wt p53: expression vectors for wt and mutant p53 coinjected into normal human fibroblasts; for % apoptotic cells: normal fibroblasts (C5RO), of p53 positive cells; for % apoptotic cells / p53 localization (% cells) both / p53 localization (% cells) cytoplasmic / p53 localization (% cells) nuclei: 24 hr after microinjection; for p53 localization (% cells) both / p53 localization (% cells) cytoplasmic / p53 localization (% cells) nuclei: normal fibroblasts"}, "binding of p53 to XPB": {"biological_target": "T1, binding of p53 to XPB (Homo sapiens, UniProt P04637)", "T1 construct": "was used for in vitro translation of full length XPB protein; made in house; host or cells: GST-p53-WT: Escherichia coli; XPB: cell-free in vitro transcription/translation (Promega)", "assay": "Competitive inhibition by peptides of XPB binding to GST-p53-WT", "conditions": "peptide preincubated with GST-p53-WT 30 min on ice, 12-596 nM", "experimental": "FIG. 4. Peptides corresponding to helicase motif III of XPB and the C-terminus of p53 prevent XPB from binding to GST-p53. Four different synthetic peptides were preincubated with 2 μg GST-p53WT for 30 minutes on ice before the addition of ^35S-labeled, in vitro-translated XPB for 60 min at RT. Peptide #464 corresponds to residues 464-478 of XPB (lanes 2-4; 12, 120, and 596 nM), peptide #479 corresponds to residues 479-493 of XPB (lanes 5-7; 12, 116, and 578 nM), peptide #99 corresponds to residues 100-115 of HBX (lanes 8-9; 111 and 554 nM), and peptide #p53cp corresponds to residues 367-387 of p53 (lanes 11-12; 85 and 424 nM).\n(§1) The helicase motif III in XPB and the C-terminal region of p53 are both important regions that are involved in the binding of p53 to XPB. […] Incubation conditions for the binding assays and analysis of binding was then carried out as described in Example 2 herein."}, "[2]": {"test_system": "XPB binding to mutant p53", "assay": "Peptide inhibition of XPB binding to mutant p53", "parameters": "species or system human", "conditions": "data not shown", "experimental": "as §1"}, "[3]": {"biological_target": "T2, XPD helicase within BTF2-TFIIH (Homo sapiens, UniProt P18074)", "T2 construct": "XPD and XPB helicase activity within the native BTF2-TFIIH complex; endogenous in cells; host or cells: HeLa cell nuclear extract (HAP fraction)", "assay": "BTF2-TFIIH helicase assay, 5'→3' (XPD)", "type": "biochemical", "conditions": "6, 18, 120 ng wild-type p53 or 7, 21, 140 ng p53-273H"}, "[4]": {"biological_target": "T3, XPB helicase within BTF2-TFIIH (Homo sapiens, UniProt P19447)", "T3 construct": "XPD and XPB helicase activity within the native BTF2-TFIIH complex; endogenous in cells; host or cells: HeLa cell nuclear extract (HAP fraction)", "assay": "BTF2-TFIIH helicase assay, 3'→5' (XPB)", "type": "biochemical", "conditions": "6, 18, 120 ng wild-type p53 or 7, 21, 140 ng p53-273H"}, "wild type p53": {"biological_target": "T4, wild type p53 (Homo sapiens, UniProt P04637)", "T4 construct": "made in house; host or cells: Escherichia coli", "assay": "Binding of XPB proteins with deletion mutations to wild type p53", "conditions": "for binding of in vitro-translated XPB deletion mutant to GST-p53-WT: compared with wild-type XPB", "experimental": "FIGS. 3A, 3B and 3C. p53 binds to XPB helicase motifs Ia, II and III. […] Twenty percent of the original input was loaded in parallel as the references (lanes 1-3). B. In vitro-translated wild-type p53 protein was mixed with GSH-beads loaded with 4 μg of GST (lane 2), 2 μg of GST-XPB (WT) (lane 3), or 2 μg of GST-XPB (truncated XPB with 80-480 residues) (lane 4). Bound proteins were analyzed on SDS/PAGE. The original input (100%) was included as a reference (lane 1). C. Schematic representation of the full-length or the truncated XPB proteins used in binding assays. Black boxes in the bars are the putative helicase motifs conserved across the helicase superfamily. The small open bar from residues 354 to 496 covers the region which binds p53, with the closed bar in the right side covering motif III representing the higher affinity binding site. Helicase motif 1, residues 337-351; motif Ia, residues 361-374; motif II, residues 434-446; motif III, residues 462-480; motif IV, residues 576-592; motif V, residues 601-621; motif VI, residues 630-649.\nThe binding assays were done in 500 μl IP buffer (50 mM Tris-HCl, pH8.0/120 mM NaCl/0.5% Nonidet P-40) containing the ^35S-labeled, in vitro translated proteins and GST fusion proteins loaded on GSH-beads at RT for 60 min. After washing five times with IP buffer, the bound proteins were released by boiling the beads in Laemmli buffer for 5 min, separated by SDS-PAGE, and visualized by fluolorography, as described in Wang, X. W., et al. (1994) Proc. Natl. Acad. Sci., USA 91:2230-2234.\nXPB contains 7 putative helicase motifs (FIG. 3C, black bars) which are conserved among the helicase superfamily and are indispensable for NER activity. […] The XPB mutants were produced a s described in Example 1, herein, and the binding studies with wild type p53 were carried out as described in Example 2, herein."}}, "note": "“Also recorded” adds a separate entry of the source.", "data": [{"molecule": "361 to 393: fragment of the c-terminus of wt p53, amino acid residues 361 to 393", "values": [{"measurement": "induction of apoptosis by fragments of the c-terminus of wt p53", "setting": "[1]; cells and delivery not stated for the fragments", "result": "can also induce apoptosis"}]}, {"molecule": "479: residues 479 to 493 of XPB (DLNFLIGPKLYEANW) [compound 479, reference compound]", "values": [{"measurement": "competition of in vitro-translated XPB from GST-p53", "setting": "binding of p53 to XPB", "result": "failed to do so; also recorded: enhance binding"}]}, {"molecule": "Peptide #p53cp: amino acid residues 367-387 of human wild type p53 (SHLKSKKGQSTSRHKKLMFKT)", "values": [{"measurement": "competition of in vitro-translated XPB from GST-p53", "setting": "binding of p53 to XPB", "result": "competed; also recorded: capable of inhibiting the binding"}]}, {"molecule": "249^Ser: p53 mutant 249Ser, microinjected as CMV expression vector", "values": [{"measurement": "effect of coinjected mutant p53 on induction of apoptosis by wt p53", "setting": "[1]", "result": "completely abolished"}, {"measurement": "% apoptotic cells", "setting": "[1]", "result": "0(34) %"}, {"measurement": "p53 localization (% cells) both", "setting": "[1]", "result": 17, "unit": "% cells"}, {"measurement": "p53 localization (% cells) cytoplasmic", "setting": "[1]", "result": 77, "unit": "% cells"}, {"measurement": "p53 localization (% cells) nuclei", "setting": "[1]", "result": 6, "unit": "% cells"}]}, {"molecule": "Peptide #464: amino acid residues 464 to 478 of XPB, helicase motif III region (LGLTATLVREDDKIV)", "values": [{"measurement": "inhibition of XPB binding to mutant p53", "setting": "[2]", "result": "did not inhibit"}, {"measurement": "competition of in vitro-translated XPB from GST-p53", "setting": "binding of p53 to XPB; listed as #464", "result": "efficiently competed; also recorded: capable of inhibiting the binding"}]}, {"molecule": "273^His: p53 mutated at codon 273 (Arg→His); expression vector or baculovirus-produced protein", "values": [{"measurement": "effect of coinjected mutant p53 on induction of apoptosis by wt p53", "setting": "[1]", "result": "completely abolished"}, {"measurement": "% apoptotic cells", "setting": "[1]", "result": "7(30) %"}, {"measurement": "% apoptotic cells", "setting": "[1]; listed as 273]^His", "result": "significantly reduced"}, {"measurement": "p53 localization (% cells) both", "setting": "[1]", "result": 73, "unit": "% cells"}, {"measurement": "p53 localization (% cells) cytoplasmic", "setting": "[1]", "result": 0, "unit": "% cells"}, {"measurement": "p53 localization (% cells) nuclei", "setting": "[1]", "result": 27, "unit": "% cells"}, {"measurement": "inhibition of XPD helicase activity of BTF2-TFIIH", "setting": "[3]", "result": "No inhibition"}, {"measurement": "inhibition of XPB helicase activity of BTF2-TFIIH", "setting": "[4]", "result": "No inhibition"}]}, {"molecule": "99: non relevant peptide from HBV, residues 100-115 of HBX [compound 99, reference compound]", "values": [{"measurement": "competition of in vitro-translated XPB from GST-p53", "setting": "binding of p53 to XPB", "result": "failed to do so; also recorded: enhance binding"}]}, {"molecule": "B1", "values": [{"measurement": "binding of in vitro-translated XPB deletion mutant to GST-p53-WT", "setting": "wild type p53", "result": "completely abolished the binding"}]}, {"molecule": "B2", "values": [{"measurement": "binding of in vitro-translated human wild-type p53 to GST-XPB protein", "setting": "wild type p53; GSH-beads loaded with GST-XPB protein", "result": "significantly less binding"}]}, {"molecule": "B3", "values": [{"measurement": "binding of in vitro-translated XPB deletion mutant to GST-p53-WT", "setting": "wild type p53", "result": "did not alter the binding"}]}]}
